From the NIST ThermoML archive (doi:10.1016/j.jct.2017.03.026)
Several values for one entry are separate records, joined by “and”; a condition that tells them apart may be missing. Equal entries are not always repeated.

Test: molar heat capacity at constant pressure
Details: 101.33 kPa, Crystal, Small (less than 1 g) adiabatic calorimetry

O.O.O.O.O.O=S(=O)([O-])[O-].[Cu+2] [copper(II) sulfate pentahydrate]
Details	molar heat capacity at constant pressure
4.261 K	0.5156 J/K/mol
4.305 K	0.5483 J/K/mol
4.311 K	0.5046 J/K/mol
4.335 K	0.5159 J/K/mol
4.395 K	0.5368 J/K/mol
4.524 K	0.5196 J/K/mol
4.539 K	0.5173 J/K/mol
4.569 K	0.4829 J/K/mol
4.583 K	0.5241 J/K/mol
4.777 K	0.4969 J/K/mol
4.798 K	0.4984 J/K/mol
4.823 K	0.4929 J/K/mol
4.824 K	0.4432 J/K/mol
4.978 K	0.5029 J/K/mol
5 K	0.4962 J/K/mol
5.069 K	0.4964 J/K/mol
5.082 K	0.4427 J/K/mol
5.104 K	0.4944 J/K/mol
5.177 K	0.4896 J/K/mol
5.342 K	0.4946 J/K/mol
5.372 K	0.4889 J/K/mol
5.378 K	0.4929 J/K/mol
5.56 K	0.4939 J/K/mol
5.621 K	0.4969 J/K/mol
5.651 K	0.4969 J/K/mol
5.749 K	0.4906 J/K/mol
5.9 K	0.5111 J/K/mol
5.914 K	0.4479 J/K/mol
5.925 K	0.5016 J/K/mol
5.937 K	0.4989 J/K/mol
6.172 K	0.5019 J/K/mol
6.291 K	0.5248 J/K/mol
6.303 K	0.5186 J/K/mol and 0.4587 J/K/mol
6.448 K	0.5358 J/K/mol
6.726 K	0.5553 J/K/mol
6.774 K	0.5665 J/K/mol
6.778 K	0.5585 J/K/mol
6.783 K	0.4881 J/K/mol
7.002 K	0.5855 J/K/mol
7.249 K	0.6135 J/K/mol
7.254 K	0.6117 J/K/mol
7.273 K	0.6282 J/K/mol
7.547 K	0.6634 J/K/mol
7.713 K	0.7001 J/K/mol
7.723 K	0.6939 J/K/mol
7.725 K	0.6355 J/K/mol
7.824 K	0.7166 J/K/mol
8.096 K	0.7788 J/K/mol
8.182 K	0.7853 J/K/mol
8.189 K	0.786 J/K/mol
8.19 K	0.7356 J/K/mol
8.371 K	0.8474 J/K/mol
8.632 K	0.9011 J/K/mol
8.65 K	0.9014 J/K/mol and 0.8412 J/K/mol
8.653 K	0.8934 J/K/mol
8.928 K	0.968 J/K/mol
9.09 K	1.043 J/K/mol
9.107 K	0.9518 J/K/mol
9.116 K	1.028 J/K/mol
9.204 K	1.057 J/K/mol
9.48 K	1.134 J/K/mol
9.555 K	1.149 J/K/mol
9.563 K	1.103 J/K/mol
9.583 K	1.165 J/K/mol
9.756 K	1.2 J/K/mol
10 K	1.299 J/K/mol
10.02 K	1.297 J/K/mol and 1.25 J/K/mol
10.03 K	1.306 J/K/mol
10.05 K	1.315 J/K/mol
10.4 K	1.456 J/K/mol
10.7 K	1.569 J/K/mol
10.71 K	1.536 J/K/mol
10.77 K	1.6 J/K/mol
10.86 K	1.634 J/K/mol
11.32 K	1.835 J/K/mol
11.62 K	1.99 J/K/mol
11.63 K	1.944 J/K/mol
11.7 K	2.014 J/K/mol
11.78 K	2.059 J/K/mol
12.24 K	2.283 J/K/mol
12.54 K	2.453 J/K/mol
12.55 K	2.432 J/K/mol
12.62 K	2.5 J/K/mol
12.7 K	2.533 J/K/mol
13.16 K	2.801 J/K/mol
13.47 K	3.01 J/K/mol and 3.006 J/K/mol
13.55 K	3.048 J/K/mol
13.62 K	3.099 J/K/mol
14.09 K	3.404 J/K/mol
14.24 K	3.51 J/K/mol
14.39 K	3.63 J/K/mol
14.4 K	3.652 J/K/mol
14.48 K	3.676 J/K/mol
14.55 K	3.735 J/K/mol
15 K	4.062 J/K/mol
15.33 K	4.33 J/K/mol and 4.316 J/K/mol and 4.374 J/K/mol
16.27 K	5.102 J/K/mol and 5.148 J/K/mol
16.34 K	5.147 J/K/mol
17.21 K	5.92 J/K/mol
17.22 K	5.985 J/K/mol
17.34 K	6.038 J/K/mol
18.16 K	6.788 J/K/mol
18.17 K	6.865 J/K/mol
18.34 K	6.974 J/K/mol
19.12 K	7.738 J/K/mol and 7.803 J/K/mol
19.34 K	7.95 J/K/mol
20 K	8.662 J/K/mol
20.07 K	8.711 J/K/mol
20.08 K	8.781 J/K/mol
20.34 K	8.968 J/K/mol
21.52 K	10.37 J/K/mol and 10.5 J/K/mol
21.84 K	10.73 J/K/mol
22.86 K	11.97 J/K/mol
23.43 K	12.81 J/K/mol
23.44 K	12.67 J/K/mol
23.8 K	13.12 J/K/mol
23.86 K	13.21 J/K/mol
24.84 K	14.42 J/K/mol
25 K	14.64 J/K/mol
25.35 K	15.41 J/K/mol
25.49 K	15.25 J/K/mol
25.75 K	15.84 J/K/mol
25.81 K	15.7 J/K/mol
26.5 K	16.59 J/K/mol
26.79 K	16.97 J/K/mol
27.28 K	18.19 J/K/mol
27.48 K	17.9 J/K/mol
27.72 K	18.24 J/K/mol
27.77 K	18.33 J/K/mol
28.45 K	19.31 J/K/mol
28.75 K	19.73 J/K/mol
29.23 K	20.9 J/K/mol
29.43 K	20.68 J/K/mol
29.7 K	21.26 J/K/mol
29.73 K	21.15 J/K/mol
30 K	21.51 J/K/mol
30.41 K	22.11 J/K/mol
30.7 K	22.53 J/K/mol
31.22 K	23.13 J/K/mol
31.39 K	23.59 J/K/mol
31.68 K	24.03 J/K/mol and 23.15 J/K/mol
32.37 K	25.14 J/K/mol
32.66 K	25.56 J/K/mol
33.19 K	26.4 J/K/mol
33.35 K	26.55 J/K/mol
33.65 K	27.01 J/K/mol
33.66 K	26.86 J/K/mol
34.34 K	28.1 J/K/mol
34.62 K	28.57 J/K/mol
35 K	29.13 J/K/mol
35.15 K	29.64 J/K/mol
35.31 K	29.65 J/K/mol
35.61 K	30.07 J/K/mol
35.64 K	30.19 J/K/mol
36.17 K	31.27 J/K/mol
36.26 K	31.26 J/K/mol
36.29 K	31.18 J/K/mol
36.59 K	31.76 J/K/mol
37.11 K	32.81 J/K/mol
37.27 K	32.75 J/K/mol
37.57 K	33.3 J/K/mol
37.61 K	33.52 J/K/mol
38.25 K	34.37 J/K/mol
38.34 K	34.7 J/K/mol
38.38 K	34.84 J/K/mol
38.55 K	34.93 J/K/mol
39.23 K	35.95 J/K/mol
39.54 K	36.51 J/K/mol
40 K	37.15 J/K/mol
40.22 K	37.51 J/K/mol
40.31 K	37.77 J/K/mol
40.35 K	37.93 J/K/mol
41.2 K	39.02 J/K/mol
42.19 K	40.35 J/K/mol
42.29 K	40.63 J/K/mol
42.32 K	41.04 J/K/mol
43.17 K	41.93 J/K/mol
44.16 K	43.29 J/K/mol
44.27 K	43.38 J/K/mol
44.29 K	44.04 J/K/mol
45 K	44.39 J/K/mol
45.14 K	44.61 J/K/mol
46.12 K	45.87 J/K/mol
46.25 K	46.08 J/K/mol
46.27 K	47.03 J/K/mol
47.11 K	47.24 J/K/mol
48.1 K	48.62 J/K/mol
48.23 K	48.95 J/K/mol
48.24 K	49.93 J/K/mol
49.08 K	50.18 J/K/mol
50 K	51.93 J/K/mol
50.07 K	52.01 J/K/mol
50.21 K	52.31 J/K/mol
50.22 K	52.88 J/K/mol
51.06 K	53.89 J/K/mol
52.04 K	55.62 J/K/mol
52.19 K	55.66 J/K/mol and 55.74 J/K/mol
53.03 K	57.23 J/K/mol
54.02 K	58.82 J/K/mol
54.17 K	58.74 J/K/mol
54.18 K	58.73 J/K/mol
55 K	60.26 J/K/mol and 60.19 J/K/mol
55.99 K	61.63 J/K/mol
56.15 K	61.82 J/K/mol
56.16 K	61.65 J/K/mol
56.98 K	62.69 J/K/mol
57.97 K	63.82 J/K/mol
58.14 K	64.89 J/K/mol
58.15 K	64.47 J/K/mol
58.96 K	65.23 J/K/mol
59.95 K	66.92 J/K/mol
60 K	66.98 J/K/mol
60.12 K	67.94 J/K/mol
60.14 K	67.3 J/K/mol
60.93 K	68.42 J/K/mol
61.92 K	69.94 J/K/mol
62.11 K	70.89 J/K/mol
62.13 K	70.09 J/K/mol
62.92 K	71.4 J/K/mol
63.91 K	72.71 J/K/mol
64.1 K	73.66 J/K/mol
64.13 K	72.85 J/K/mol
64.9 K	74 J/K/mol
65 K	74.12 J/K/mol
65.89 K	75.34 J/K/mol
66.1 K	76.33 J/K/mol
66.12 K	75.65 J/K/mol
66.89 K	76.71 J/K/mol
67.88 K	78.07 J/K/mol
68.09 K	78.22 J/K/mol and 78.9 J/K/mol
68.88 K	79.31 J/K/mol
69.87 K	80.54 J/K/mol
70 K	80.85 J/K/mol and 80.84 J/K/mol
70.08 K	81.47 J/K/mol
71.87 K	83.38 J/K/mol
72.45 K	84.21 J/K/mol
72.58 K	84.91 J/K/mol
74.88 K	87.18 J/K/mol
75 K	87.24 J/K/mol
75.45 K	87.98 J/K/mol
75.59 K	88.72 J/K/mol
77.89 K	90.83 J/K/mol
77.95 K	91.36 J/K/mol
78.48 K	91.71 J/K/mol
79.11 K	92.21 J/K/mol
79.15 K	92.84 J/K/mol
79.36 K	93.03 J/K/mol
80 K	93.33 J/K/mol
80.16 K	93.95 J/K/mol
80.92 K	94.52 J/K/mol
81.18 K	95.24 J/K/mol
81.51 K	95.36 J/K/mol
82.2 K	96.42 J/K/mol
82.48 K	96.2 J/K/mol
82.91 K	97.32 J/K/mol
83.22 K	97.59 J/K/mol
84.24 K	98.9 J/K/mol
85 K	99.12 J/K/mol
85.26 K	100.17 J/K/mol
85.52 K	99.69 J/K/mol
85.95 K	100.9 J/K/mol
86.12 K	100.4 J/K/mol
86.28 K	101.27 J/K/mol
87.26 K	101.63 J/K/mol
87.3 K	102.49 J/K/mol
88.08 K	103.41 J/K/mol
88.28 K	102.83 J/K/mol
88.33 K	103.67 J/K/mol
88.57 K	103.19 J/K/mol
89 K	104.46 J/K/mol
89.31 K	103.96 J/K/mol
89.36 K	104.73 J/K/mol
89.57 K	104.25 J/K/mol
90 K	104.7 J/K/mol
90.33 K	105.21 J/K/mol
90.39 K	105.94 J/K/mol
90.76 K	106.39 J/K/mol
91.36 K	106.32 J/K/mol
91.43 K	107.16 J/K/mol
91.62 K	106.68 J/K/mol
91.84 K	106.75 J/K/mol
92.05 K	107.96 J/K/mol
92.39 K	107.49 J/K/mol
92.47 K	108.25 J/K/mol
93.36 K	109.28 J/K/mol
93.42 K	108.59 J/K/mol
93.5 K	109.47 J/K/mol
93.89 K	109.02 J/K/mol
94.46 K	109.82 J/K/mol
94.55 K	110.67 J/K/mol
94.68 K	110.09 J/K/mol
95 K	110.3 J/K/mol
95.12 K	111.38 J/K/mol
95.49 K	110.97 J/K/mol
95.59 K	111.73 J/K/mol
95.94 K	111.25 J/K/mol
95.97 K	112.11 J/K/mol
96.53 K	111.9 J/K/mol
96.63 K	112.87 J/K/mol
97.56 K	113.1 J/K/mol
97.68 K	113.95 J/K/mol
97.74 K	113.41 J/K/mol
97.98 K	113.44 J/K/mol
98.19 K	114.68 J/K/mol
98.58 K	114.96 J/K/mol
98.6 K	114.41 J/K/mol
98.72 K	115.17 J/K/mol
99.65 K	115.37 J/K/mol
99.77 K	116.31 J/K/mol
100 K	115.7 J/K/mol
100.03 K	115.65 J/K/mol
100.69 K	116.49 J/K/mol
100.81 K	117.42 J/K/mol
100.82 K	116.62 J/K/mol
101.2 K	117.71 J/K/mol
101.27 K	117.92 J/K/mol
